Measured values published in patent US20260158009A1 (GENZYME CORPORATION, priority 2023, published 2026).

Key:
[1] = molecular target: T1, hRIPK1 (aa 1-375) fusion protein (Homo sapiens, UniProt Q13546); experiment: ADP-Glo kinase assay: catalytic activity of RIPK1 (autophosphorylation, conversion of ATP to ADP); assay type: biochemical
T1 construct: hRIPK1 (aa 1-375) fusion protein
T1 sequence (Q13546 1-375): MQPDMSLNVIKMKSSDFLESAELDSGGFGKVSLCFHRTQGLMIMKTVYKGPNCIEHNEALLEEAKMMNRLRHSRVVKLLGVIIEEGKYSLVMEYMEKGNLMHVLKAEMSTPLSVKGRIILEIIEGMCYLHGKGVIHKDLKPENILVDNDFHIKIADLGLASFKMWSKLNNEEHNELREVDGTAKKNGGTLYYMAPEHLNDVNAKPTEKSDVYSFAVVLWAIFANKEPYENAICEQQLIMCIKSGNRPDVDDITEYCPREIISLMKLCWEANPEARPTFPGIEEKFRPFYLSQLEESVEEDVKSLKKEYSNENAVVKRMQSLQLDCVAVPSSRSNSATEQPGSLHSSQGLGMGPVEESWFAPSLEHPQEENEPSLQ
How it was run: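 The readout was ADP-Glo luminescence after a 240 min rt autophosphorylation reaction with 50 μM ATP, following 30 min preincubation of 3.6 μg/ml hRIPK1 (aa 1-375) fusion with compound at 33300-1.69 nM final in 1% DMSO. Values came from Levenberg-Marquardt nonlinear fits.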

U937 cells = experiment: Cellular assay in U937 cells: activity of RIPK1 inhibitors on TNFα/zVAD.fmk-induced cell death (necroptosis), CellTiter 96 AQueous (MTS) readout; assay type: cell-based; conditions: Homo sapiens, U-937
How it was run: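 Necroptosis was measured by viable-cell MTS reduction (4 h, absorbance 490 nm) after overnight (18–24 h) 37° C culture. Cell suspensions of U937 cells carried TNFα (100 ng/ml) plus zVAD.fmk (50 μM) before compound was added. A 10-point curve (10 μM–0.26 nM or 1 μM–0.07 nM) was run in duplicate, normalised to the control lacking TNFα/zVAD.fmk.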

IC50 [1] [nM] | Compound | IC50 (U937 cells) [nM]
20 | Cc1ccc(CC23CCC(C(=O)N4OCC[C@H]4c4cc(F)cc(C#N)c4)(CC2)C3)cc1C(N)=O [compound 270, 5-[[4-[(3S)-3-(3-cyano-5-fluoro-phenyl)isoxazolidine-2-carbonyl]norbornan-1-yl]methyl]-2-methyl-benzamide] | 50
97 | Cc1ccc([C@@H]2CCON2C(=O)C23CCC(Cc4ccc(C)c(C(N)=O)c4)(CC2)C3)cn1 [compound 271, 2-methyl-5-[[4-[(3S)-3-(6-methyl-3-pyridyl)isoxazolidine-2-carbonyl]norbornan-1-yl]methyl]benzamide] | 605
29 | Cc1ccc([C@@H]2CCON2C(=O)C23CCC(Cc4ccc(C)c(C(N)=O)c4)(CC2)CC3)cn1 [compound 272, 2-methyl-5-[[4-[(3S)-3-(6-methyl-3-pyridyl)isoxazolidine-2-carbonyl]-1-bicyclo[2.2.2]octanyl]methyl]benzamide] | 206
15 | Cc1ccc(CC23CCC(C(=O)N4OCC[C@H]4c4cc(F)cc(F)c4)(CC2)CC3)cc1C(N)=O [compound 273, 5-[[4-[(3S)-3-(3,5-difluorophenyl)-1,2-oxazolidine-2-carbonyl]-1-bicyclo[2.2.2]octanyl]methyl]-2-methylbenzamide] | 9
9 | Cc1ccc(CC23CCC(C(=O)N4OCC[C@H]4c4cc(F)cc(C#N)c4)(CC2)CC3)cc1C(N)=O [compound 274, 5-[[4-[(3S)-3-(3-cyano-5-fluoro-phenyl)isoxazolidine-2-carbonyl]-1-bicyclo[2.2.2]octanyl]methyl]-2-methyl-benzamide] | 40
8 | Cc1c(C#N)cncc1C[C@H]1CC[C@H](C(=O)N2OCC[C@H]2c2cc(F)cc(F)c2)CC1 [compound 275, trans-5-[[4-[(3S)-3-(3,5-difluorophenyl)isoxazolidine-2-carbonyl]cyclohexyl]methyl]-4-methyl-pyridine-3-carbonitrile] | 9
20 | Cc1c(C#N)cncc1C[C@H]1CC[C@H](C(=O)N2OCC[C@H]2c2cc(F)cc(C#N)c2)CC1 [compound 276, trans-5-[[4-[(3S)-3-(3-cyano-5-fluoro-phenyl)isoxazolidine-2-carbonyl]cyclohexyl]methyl]-4-methyl-pyridine-3-carbonitrile] | 9
19 | Cc1ncc(C#N)cc1C[C@H]1CC[C@H](C(=O)N2OCC[C@H]2c2cc(F)cc(C#N)c2)CC1 [compound 277, trans-5-[[4-[(3S)-3-(3-cyano-5-fluoro-phenyl)isoxazolidine-2-carbonyl]cyclohexyl]methyl]-6-methyl-pyridine-3-carbonitrile] | 4
16 | Cc1ncc(C#N)cc1C[C@H]1CC[C@H](C(=O)N2OCC[C@H]2c2cc(F)cc(F)c2)CC1 [compound 278, trans-5-[[4-[(3S)-3-(3,5-difluorophenyl)isoxazolidine-2-carbonyl]cyclohexyl]methyl]-6-methyl-pyridine-3-carbonitrile] | 3
7 | N#Cc1cc(F)cc([C@@H]2CCON2C(=O)[C@H]2CC[C@H](Cc3ccc(CCO)c(F)c3)CC2)c1 [compound 279, trans-3-fluoro-5-[(3S)-2-[4-[[3-fluoro-4-(2-hydroxyethyl)phenyl]methyl]cyclohexanecarbonyl]isoxazolidin-3-yl]benzonitrile] | 9
13 | O=C([C@H]1CC[C@H](Cc2ccc(CCO)c(F)c2)CC1)N1OCC[C@H]1c1cc(F)cc(F)c1 [compound 280, trans-[(3S)-3-(3,5-difluorophenyl)isoxazolidin-2-yl]-[4-[[3-fluoro-4-(2-hydroxyethyl)phenyl]methyl]cyclohexyl]methanone] | 7
